Test results: US20230416248A1, “COMPOUNDS AND USES THEREOF” (Foghorn Therapeutics Inc., priority 2020, published 2023)
pIC50: −log10 of the molar value. Like-named read-outs stand apart in the source and are kept apart here.

What was measured:
BRM = molecular target: T1, BRM (Homo sapiens, UniProt P51531); experiment: ATPase catalytic activity of BRM, ADP-Glo in vitro biochemical assay; conditions: for pIC50: 30 nM BRM, 400 μM ATP; for Ratio* (BRG1 IC50 (μM) divided by BRM IC50 (μM)): selectivity ratio BRG1 IC50 / BRM IC50
T1 construct: made in house; host or cells: High Five insect cells
T1 sequence (P51531 whole entry): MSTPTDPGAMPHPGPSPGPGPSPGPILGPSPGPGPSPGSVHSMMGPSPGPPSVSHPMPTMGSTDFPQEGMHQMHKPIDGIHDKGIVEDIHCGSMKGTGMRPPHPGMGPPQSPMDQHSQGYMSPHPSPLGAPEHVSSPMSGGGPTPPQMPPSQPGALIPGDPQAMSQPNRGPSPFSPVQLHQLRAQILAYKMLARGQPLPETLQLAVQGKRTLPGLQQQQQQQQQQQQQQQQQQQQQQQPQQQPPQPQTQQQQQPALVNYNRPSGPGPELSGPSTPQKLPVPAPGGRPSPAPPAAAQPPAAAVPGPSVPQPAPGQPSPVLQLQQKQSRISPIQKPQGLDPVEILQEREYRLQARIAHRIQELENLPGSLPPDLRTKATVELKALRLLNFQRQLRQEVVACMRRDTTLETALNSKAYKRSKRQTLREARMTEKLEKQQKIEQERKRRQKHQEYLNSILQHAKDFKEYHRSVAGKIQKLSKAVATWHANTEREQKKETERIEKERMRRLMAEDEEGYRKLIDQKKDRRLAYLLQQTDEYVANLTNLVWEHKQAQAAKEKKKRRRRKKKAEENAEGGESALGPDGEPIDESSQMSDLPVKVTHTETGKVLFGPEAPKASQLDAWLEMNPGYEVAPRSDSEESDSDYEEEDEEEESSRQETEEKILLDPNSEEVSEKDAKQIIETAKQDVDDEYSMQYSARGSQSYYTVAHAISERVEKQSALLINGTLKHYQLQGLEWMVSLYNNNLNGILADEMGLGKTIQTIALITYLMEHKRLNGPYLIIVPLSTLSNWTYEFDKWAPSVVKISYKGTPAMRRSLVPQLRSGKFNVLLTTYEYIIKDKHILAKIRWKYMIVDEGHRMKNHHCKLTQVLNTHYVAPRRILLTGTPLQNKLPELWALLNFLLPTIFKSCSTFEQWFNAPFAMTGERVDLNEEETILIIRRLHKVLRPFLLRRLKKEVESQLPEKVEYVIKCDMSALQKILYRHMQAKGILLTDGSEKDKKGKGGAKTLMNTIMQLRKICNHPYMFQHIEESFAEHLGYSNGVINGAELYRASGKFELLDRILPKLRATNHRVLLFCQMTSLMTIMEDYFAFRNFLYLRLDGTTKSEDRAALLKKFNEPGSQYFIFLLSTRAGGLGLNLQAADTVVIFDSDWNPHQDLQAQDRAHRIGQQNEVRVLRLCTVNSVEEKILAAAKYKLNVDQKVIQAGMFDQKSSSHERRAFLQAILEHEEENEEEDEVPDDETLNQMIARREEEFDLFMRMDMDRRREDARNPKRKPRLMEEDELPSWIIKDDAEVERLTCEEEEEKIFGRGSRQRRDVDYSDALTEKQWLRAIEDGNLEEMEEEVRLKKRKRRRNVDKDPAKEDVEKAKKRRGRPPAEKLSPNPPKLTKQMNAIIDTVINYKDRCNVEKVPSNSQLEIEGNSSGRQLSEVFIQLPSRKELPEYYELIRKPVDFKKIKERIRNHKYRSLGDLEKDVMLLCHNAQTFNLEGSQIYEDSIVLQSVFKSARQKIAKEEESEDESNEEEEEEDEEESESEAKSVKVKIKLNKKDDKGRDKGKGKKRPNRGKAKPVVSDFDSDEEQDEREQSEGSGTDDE
How it was run: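 ADP-Glo luminescence, after depletion of leftover ATP and conversion of ADP, reported the activity. The 1 h room-temperature reaction held 400 μM ATP, 20 nM salmon sperm DNA and 30 nM BRM in 20 mM Tris pH 8, 20 mM MgCl2, 50 mM NaCl, 0.1% Tween-20, 1 mM DTT.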

BRG-1 = molecular target: T2, BRG-1 (Homo sapiens, UniProt P51532); experiment: ATPase catalytic activity of BRG-1, ADP-Glo in vitro biochemical assay; conditions: 30 nM BRG-1, 400 μM ATP, read-out: BRG1 IC50
T2 construct: made in house; host or cells: High Five insect cells
T2 sequence (P51532 whole entry): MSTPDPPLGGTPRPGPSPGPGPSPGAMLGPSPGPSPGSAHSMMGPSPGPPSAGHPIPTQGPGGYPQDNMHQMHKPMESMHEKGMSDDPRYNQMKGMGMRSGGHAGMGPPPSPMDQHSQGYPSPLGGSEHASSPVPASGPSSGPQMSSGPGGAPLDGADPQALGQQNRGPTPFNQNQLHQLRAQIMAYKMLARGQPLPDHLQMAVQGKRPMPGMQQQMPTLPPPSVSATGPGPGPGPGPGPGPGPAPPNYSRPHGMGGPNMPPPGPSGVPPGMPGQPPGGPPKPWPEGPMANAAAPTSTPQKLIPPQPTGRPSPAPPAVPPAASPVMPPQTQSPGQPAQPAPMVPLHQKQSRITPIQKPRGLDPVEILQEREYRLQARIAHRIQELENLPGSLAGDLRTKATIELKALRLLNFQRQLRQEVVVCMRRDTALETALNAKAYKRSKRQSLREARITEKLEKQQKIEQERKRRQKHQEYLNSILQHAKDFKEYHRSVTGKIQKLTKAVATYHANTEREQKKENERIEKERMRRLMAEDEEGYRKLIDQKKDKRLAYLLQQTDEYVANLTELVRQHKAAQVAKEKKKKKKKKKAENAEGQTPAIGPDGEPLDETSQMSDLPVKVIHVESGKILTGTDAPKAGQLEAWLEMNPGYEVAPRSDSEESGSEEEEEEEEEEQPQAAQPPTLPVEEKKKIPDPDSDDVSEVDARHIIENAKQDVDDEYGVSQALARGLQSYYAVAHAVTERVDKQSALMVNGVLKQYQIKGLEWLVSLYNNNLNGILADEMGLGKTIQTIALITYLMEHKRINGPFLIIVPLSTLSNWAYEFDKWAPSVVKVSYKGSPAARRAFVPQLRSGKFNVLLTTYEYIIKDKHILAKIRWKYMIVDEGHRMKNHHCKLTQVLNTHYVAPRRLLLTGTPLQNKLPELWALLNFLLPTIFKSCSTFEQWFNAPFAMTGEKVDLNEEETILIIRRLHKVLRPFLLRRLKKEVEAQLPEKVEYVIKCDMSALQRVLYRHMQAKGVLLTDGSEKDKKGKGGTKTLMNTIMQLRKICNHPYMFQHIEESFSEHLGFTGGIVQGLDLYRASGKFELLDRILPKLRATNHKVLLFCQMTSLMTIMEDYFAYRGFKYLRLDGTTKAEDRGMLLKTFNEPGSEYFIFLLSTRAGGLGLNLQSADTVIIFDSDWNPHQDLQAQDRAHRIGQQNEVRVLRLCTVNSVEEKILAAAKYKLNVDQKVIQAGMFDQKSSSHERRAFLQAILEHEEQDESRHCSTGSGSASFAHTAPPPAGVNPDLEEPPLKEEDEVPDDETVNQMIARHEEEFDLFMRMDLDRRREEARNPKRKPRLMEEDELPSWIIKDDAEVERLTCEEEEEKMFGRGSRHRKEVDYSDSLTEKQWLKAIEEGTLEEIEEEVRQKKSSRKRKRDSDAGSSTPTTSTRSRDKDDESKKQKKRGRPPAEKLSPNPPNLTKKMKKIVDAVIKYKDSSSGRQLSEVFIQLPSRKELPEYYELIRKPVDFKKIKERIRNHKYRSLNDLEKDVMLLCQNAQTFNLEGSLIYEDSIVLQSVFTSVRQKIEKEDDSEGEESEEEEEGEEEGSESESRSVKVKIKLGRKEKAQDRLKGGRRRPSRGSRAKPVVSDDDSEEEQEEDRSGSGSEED
How it was run: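 ADP produced by BRG-1 was quantified by luciferase luminescence. A 60 min room-temperature ADP-to-ATP conversion followed a 40 min ATP-depletion step.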

[1] = ATPase catalytic activity, ADP-Glo

pIC50 (BRM; ADP-Glo ATPase assay) | Ratio* (BRM; ratio BRG1 IC50 / BRM IC50) | pIC50 (BRG-1; ADP-Glo ATPase assay) | Ratio* (BRG1 IC50 (μM) divided by BRM IC50 (μM)) (BRM) | pIC50 (BRM; [1]) | Ratio* (BRM; ratio of BRG1 IC50 to BRM IC50) | pIC50 (BRG-1; [1]) | Structure (SMILES)
7.92 | 14.44 | 6.76 |  |  |  |  | COc1ccc2c(c1F)N(c1ccc3cnc(CNC(=O)c4ccc5c(c4)S(=O)(=O)CCOC5)cc3n1)CCO2 [Compound 774]
8.33 |  | 7.34 | 9.62 |  |  |  | C[C@@H]1CN(c2cccc(-c3cnc4cnc(CNC(=O)c5ccc6c(c5)S(=O)(=O)CCOC6)cc4c3)n2)C[C@H](C)O1 [Compound 161]
 |  |  |  | 7.70 | 10.34 | 6.68 | COc1cnc2c(c1C)CCCN2c1ccc2cnc(CNC(=O)c3ccc4c(c3)S(=O)(=O)CCOC4)cc2n1 [Compound 637]
8.09 | 12.88 | 6.98 |  |  |  |  | CN(C)c1cc2c(cn1)N(c1ccc3cnc(CNC(=O)c4ccc5c(c4)S(=O)(=O)CCOC5)cc3n1)CCO2 [Compound 803]
7.34 |  | 6.17 | 14.90 |  |  |  | CS(=O)(=O)c1cc(C(=O)NCc2cc3nc(-c4cccc(N5CC[C@H]6COC[C@H]6C5)n4)ccc3cn2)ccc1Cl [Compound 76]
 |  |  |  | 7.67 | 13.72 | 6.53 | O=C(NCc1cc2nc(-c3ccc(C(F)F)cc3OC3CC3)ccc2cn1)c1ccc2c(c1)S(=O)(=O)CCOC2 [Compound 357]
 |  |  |  | 7.86 | 4.48 | 7.21 | C[C@@H]1CN(c2cccc(-c3ccc4cnc(CNC(=O)c5cc(F)c6c(c5)S(=O)(=O)CCO[C@H]6C)cc4n3)n2)C[C@H](C)O1 [Compound 522]
 |  |  |  | 8.57 | 3.60 | 8.01 | C[C@@H]1CN(c2cccc(-c3ccc4cnc(CNC(=O)c5ccc6c(c5)S(=O)(=O)CCCOC6)cc4n3)n2)C[C@H](C)O1 [Compound 628]
7.43 |  | 6.39 | 11.02 |  |  |  | COC[C@H](C)N(C)c1cccc(-c2ccc3cnc(CNC(=O)c4ccc5c(c4)S(=O)(=O)CCOC5)cc3n2)n1 [Compound 70]
7.97 |  | 6.98 | 9.77 |  |  |  | Cc1cc2c(-c3ccc4cnc(CNC(=O)c5ccc6c(c5)S(=O)(=O)CCOC6)cc4n3)cccc2n1C [Compound 130]
 |  |  |  | 7.40 | 9.22 | 6.43 | COC1(Cn2ccc3c(-c4ccc5cnc(CNC(=O)c6ccc7c(c6)S(=O)(=O)CCOC7)cc5n4)ccnc32)CC1 [Compound 585]
 |  |  |  | 6.67 | 8.88 | 5.72 | O=C(NCc1cc2nc(N3CCCc4ccc(OCC(F)F)nc43)ccc2cn1)c1ccc2c(c1)S(=O)(=O)CCOC2 [Compound 601]
 |  |  |  | 7.05 | 18.86 | 5.78 | CCOc1ccc2c(n1)N(c1ccc3cnc(CNC(=O)c4ccc5c(c4)S(=O)(=O)CCOC5)cc3n1)CCC2 [Compound 576]
7.63 |  | 6.63 | 10.05 |  |  |  | CN(CC(F)F)c1cccc(-c2ccc3cnc(CNC(=O)c4ccc5c(c4)S(=O)(=O)CCOC5)cc3n2)n1 [Compound 115]
8.03 |  | 7.34 | 4.92 |  |  |  | C[C@@H]1CC(c2cccc(-c3ccc4cnc(CNC(=O)c5ccc6c(c5)S(=O)(=O)CCOC6)cc4n3)n2)=C[C@H](C)O1 [Compound 46]
7.63 |  | 6.23 | 25.10 |  |  |  | O=C(NCc1cc2nc(-c3cccc(C4CC4)n3)ccc2cn1)c1ccc2c(c1)S(=O)(=O)CCOC2 [Compound 264]
6.85 |  | 5.69 | 14.47 |  |  |  | CN1CCCc2ccc(C(=O)NCc3cc4nc(-c5cncc(C6CC6)n5)ccc4cn3)cc2S1(=O)=O [Compound 297]
7.16 |  | 6.03 | 13.41 |  |  |  | COCCN(C)c1cccc(-c2ccc3cnc(CNC(=O)c4cnc(C(F)F)c(S(C)(=O)=O)c4)cc3n2)n1 [Compound 105]
 |  |  |  | 7.67 | 17.82 | 6.42 | C[C@@H]1C[C@@H](N(C)c2cccc(-c3ccc4cnc(CNC(=O)c5ccc6c(c5)S(=O)(=O)CCOC6)cc4n3)n2)C[C@H](C)O1 [Compound 334]
 |  |  |  | 6.61 | 9.02 | 5.66 | Cc1ccc2c(n1)N(c1ccc3cnc(CNC(=O)c4ccc5c(c4)S(=O)(=O)CCOC5)cc3n1)CCN2C [Compound 593]
7.70 |  | 6.73 | 9.33 |  |  |  | Cn1ccc2c(-c3ccc4cnc(CNC(=O)c5ccc6c(c5)S(=O)(=O)CCOC6)cc4n3)ccc(Cl)c21 [Compound 43]
 |  |  |  | 8.30 | 13.86 | 7.16 | C[C@@H]1CN(c2cccc(-c3ccc4nnc(CNC(=O)c5ccc(Cl)c(S(C)(=O)=O)c5)cc4n3)n2)C[C@H](C)O1 [Compound 406]

pIC50 (BRM; ADP-Glo ATPase assay) | Ratio* (BRM; ratio BRG1 IC50 / BRM IC50) | pIC50 (BRG-1; ADP-Glo ATPase assay) | Ratio* (BRG1 IC50 (μM) divided by BRM IC50 (μM)) (BRM) | pIC50 (BRM; [1]) | Ratio* (BRM; ratio of BRG1 IC50 to BRM IC50) | pIC50 (BRG-1; [1]) | Structure (SMILES)
 |  |  |  | 7.63 | 4.32 | 6.99 | C[C@@H]1CCc2ccc(-c3ccc4cnc(CNC(=O)c5ccc6c(c5)S(=O)(=O)CCOC6)cc4n3)nc2N1C [Compound 467]
 |  |  |  | 7.63 | 8.27 | 6.72 | CC1CCc2ccc(-c3ccc4cnc(CNC(=O)c5ccc6c(c5)S(=O)(=O)CCOC6)cc4n3)nc2N1C (stereo not drawn) [Compound 414]
 |  |  |  | 6.97 | 9.95 | 5.98 | COc1ccc2c(n1)N(c1ccc3cnc(CNC(=O)c4ccc5c(c4)S(=O)(=O)CCOC5)cc3n1)CCC2 [Compound 568]
 |  |  |  | 8.03 | 14.96 | 6.86 | N#Cc1ccc2c(c1)N(c1ccc3cnc(CNC(=O)c4ccc5c(c4)S(=O)(=O)CCOC5)cc3n1)CCC2 [Compound 558]
6.78 |  | 5.62 | 14.36 |  |  |  | COc1cccc(-c2ccc3cnc(CNC(=O)c4ccc5c(c4)S(=O)(=O)CCOC5)cc3n2)c1 [Compound 265]
 |  |  |  | 8.24 | 10.67 | 7.22 | COCCN1CCOc2c(-c3ccc4cnc(CNC(=O)c5ccc6c(c5)S(=O)(=O)CCOC6)cc4n3)ccc(F)c21 [Compound 402]
7.34 | 14.46 | 6.18 |  |  |  |  | Cn1cc(-c2ccc3cnc(CNC(=O)c4ccc5c(c4)S(=O)(=O)CCOC5)cc3n2)c(OC(F)F)n1 [Compound 812]
6.91 |  | 5.93 | 9.63 |  |  |  | O=C(NCc1cc2nc(-c3cccc(OC4CC(F)(F)C4)n3)ccc2cn1)c1ccc2c(c1)S(=O)(=O)CCOC2 [Compound 74]
7.47 |  | 6.27 | 15.63 |  |  |  | COCCN1CCOc2c(-c3ccc4cnc(CNC(=O)c5ccc(Cl)c(S(C)(=O)=O)c5)cc4n3)cccc21 [Compound 88]
7.77 |  | 6.89 | 7.52 |  |  |  | COCCN1CCCc2ccc(-c3ccc4cnc(CNC(=O)c5ccc6c(c5)S(=O)(=O)CCOC6)cc4n3)nc21 [Compound 109]
 |  |  |  | 8.23 | 17.40 | 6.99 | Cc1cnc2c(c1)CCCN2c1ccc2cnc(CNC(=O)c3ccc4c(c3)S(=O)(=O)[C@@H](C)COC4)cc2n1 [Compound 396]
6.85 |  | 5.67 | 14.94 |  |  |  | O=C(NCc1cc2nc(-c3cccc(C4(F)CCC4)n3)ccc2cn1)c1ccc2c(c1)S(=O)(=O)CCOC2 [Compound 154]
7.74 |  | 6.65 | 12.26 |  |  |  | COCCCN(C)c1cccc(-c2ccc3cnc(CNC(=O)c4ccc5c(c4)S(=O)(=O)CCOC5)cc3n2)n1 [Compound 125]
6.67 | 10.10 | 5.66 |  |  |  |  | Cc1ncnc2c1CCCN2c1ccc2cnc(CNC(=O)c3ccc4c(c3)S(=O)(=O)CCOC4)cc2n1 [Compound 848]
7.99 |  | 7.17 | 6.56 |  |  |  | C[C@@H]1CN(c2cccc(-c3ccc4cnc([C@H](C)NC(=O)c5ccc6c(c5)S(=O)(=O)CCOC6)cc4n3)n2)C[C@H](C)O1 [Compound 122]
 |  |  |  | 7.70 | 23.08 | 6.34 | COCc1nc2c(cc1C)CCCN2c1ccc2cnc(CNC(=O)c3ccc4c(c3)S(=O)(=O)CCOC4)cc2n1 [Compound 626]
 |  |  |  | 7.56 | 3.98 | 6.96 | COC[C@H]1CCCN(c2cccc(-c3ccc4cnc(CNC(=O)c5ccc6c(c5)S(=O)(=O)CCOC6)cc4n3)n2)C1 [Compound 622]
 |  |  |  | 7.01 | 21.63 | 5.67 | C[C@@H]1CCS(=O)(=O)c2cc(C(=O)NCc3cc4nc(-c5cccc(N6C[C@@H](C)O[C@@H](C)C6)n5)ccc4cn3)ccc2O1 [Compound 416]
 |  |  |  | 8.10 | 4.24 | 7.47 | C[C@@H]1CN(c2cccc(-c3ccc4cnc(CNC(=O)c5cnc6c(c5)S(=O)(=O)CCC5CC65)cc4n3)n2)C[C@H](C)O1 (mixture of isomers) [Compound 528]
7.65 | 25.51 | 6.25 |  |  |  |  | O=C(NCc1cc2nc(N3CCCc4ccc(OC5CC5)nc43)ccc2cn1)c1ccc2c(c1)S(=O)(=O)CCOC2 [Compound 746]
8.11 |  | 6.99 | 13.36 |  |  |  | CO[C@@H]1CCCN(c2cccc(-c3ccc4cnc(CNC(=O)c5ccc6c(c5)S(=O)(=O)CCOC6)cc4n3)n2)C1 [Compound 92]
